Marks after values point to notes of the source that are not given here.
What was measured:
[1] = Stability of LUME and 97-63 in rat plasma (auto-sampler, bench top, freeze/thaw, freezer); format: in vitro ADME; settings: n = 6
Method: All stability studies were conducted at two concentration levels, i.e., QC low and QC high, using six replicates at each concentration levels. […] The peak areas of analyte and IS obtained at initial cycle were used as the reference to determine the stability at subsequent points. The stability of LUME and 97–63 in the biomatrix during 6 hrs of exposure at room temperature in rat plasma (bench top (BT)) was determined at ambient temperature (25 ± 2°C). Freeze/thaw (FT) stability was evaluated up to three cycles. In each cycle, samples were frozen for at least 12 hrs at −70 ± 10°C. Freezer stability of both analytes in rat plasma was assessed by analysing the QC samples stored at −70 ± 10°C for at least 15 days. Samples were considered to be stable if assay values were within the acceptable limits of accuracy (i.e., ±15% deviation) and precision (i.e., ±15% RSD).

[2] = set-up: method as in PMID 21428247; settings: cited from earlier work
[3] = Oral pharmacokinetic interaction study of LUME and 97-78 in rats (LC-ESI-MS/MS, non-compartmental analysis); format: in vivo, male Sprague–Dawley rats; settings: for RB% (relative bioavailability = AUC coadmin/AUC control × 100): LUME 10 mg/kg oral with 97-78 70 mg/kg oral vs LUME alone; for AUC(0-inf) / AUC(0-t) / CL/F / Cmax / Tmax / Vd/F / half-life: male, Sprague-Dawley, rat, plasma, po, 10 mg/kg, rats n = 5, mean ± SD
Method: Study was performed in male Sprague–Dawley rats (n = 5, weight range 200–220 g). The rats were fasted overnight (14–16 hrs) prior to the experiment but given free access to water. Rats were divided into three groups (n = 5 each): two control groups (LUME, 10 mg/kg, oral, suspension in 0.25% sodium CMC and 97–78, 70 mg/kg, oral, suspension in 0.25% sodium CMC), and one co-administration group (70 mg/kg of oral 97–78 and 10 mg/kg of oral LUME). Blood samples (approximately 0.25 mL) were collected from the retro-orbital plexus into heparinized microfuge tubes at 0.25, 0.50, 1, 3, 6, 9, 11, 13, 15, 24, 48, 72, and 120 hrs post-dosing and plasma was harvested by centrifuging the blood at 15,000xg for 10 min and stored frozen at −70 ± 10°C until bio-analysis.
Plasma data were subjected to non-compartmental pharmacokinetics analysis using WinNonlin (version 5.1, Pharsight Corp, Mountain View, CA, USA). The observed maximum plasma concentration (Cmax) and the time to reach the maximum plasma concentration (Tmax) were obtained by visual inspection of the experimental data. Area under the plasma concentration-time curve from time zero to the last quantifiable concentration (AUC0-t) was calculated using linear trapezoidal rule. The total area under the plasma concentration–time curve from time zero to time infinity (AUC0-∞) was calculated as the sum of AUC0-t and Clast/kel, where, Clast represents the last quantifiable concentration and Kel represents the terminal phase rate constant. The apparent elimination half-life (t1/2) was calculated as 0.693/kel and the kel was estimated by linear regression of the plasma concentrations in the log-linear terminal phase. The clearance (Cl/F); where F represents the oral bioavailability, was calculated as dose/AUC, and the volume of distribution (Vd/F) was calculated as (Cl/F)/kel. The data is presented as a mean ± SD. The pharmacokinetic parameters were compared using Student’s t test. A P-value of <0.05 was considered significant. The relative bioavailability (RB %) was calculated as follows: RelativebioavailabilityRB%=AUCcoadimin/AUCcontrol×100

[4] = set-up: method as in PMID 21428247; settings: cited from earlier work; remark: listed apart in the source
[5] = 10 ng/mL, 6 hrs (BT) bench top 25 ± 2°C
[6] = 10 ng/mL, 24 hrs (AS) auto-sampler at 4°C, processed samples
[7] = 10 ng/mL, FT-3 (three freeze/thaw cycles, −70 ± 10°C)
[8] = 400 ng/mL, 6 hrs (BT) bench top 25 ± 2°C
[9] = 400 ng/mL, 24 hrs (AS) auto-sampler at 4°C, processed samples
[10] = 400 ng/mL, FT-3 (three freeze/thaw cycles, −70 ± 10°C)
[11] = LUME 10 mg/kg with 97-78 70 mg/kg oral, rats
[12] = LUME 10 mg/kg oral co-administered with 97-78 70 mg/kg oral
[13] = control: LUME 10 mg/kg oral alone

Compound: C=C(c1ccc(OC(C)(C)CO)cc1)C1OCC2(OO1)C1CC3CC(C1)CC2C3 (centres unmarked) [97-63]
- Stability in rat plasma: Accuracy (%) [1, 5]: 93.85%
- Stability in rat plasma: Accuracy (%) [1, 6]: 104.67%
- Stability in rat plasma: Accuracy (%) ([1]; 10 ng/mL, 15 days at −70°C): 100.47%
- Stability in rat plasma: Accuracy (%) [1, 7]: 98.16%
- Stability in rat plasma: Accuracy (%) [1, 8]: 95.85%
- Stability in rat plasma: Accuracy (%) [1, 9]: 100.45%
- Stability in rat plasma: Accuracy (%) ([1]; 400 ng/mL, 15 days at −70°C): 98.72%
- Stability in rat plasma: Accuracy (%) [1, 10]: 99.79%

Compound: C=C(c1ccc(OC(C)(C)COC(=O)CCC(=O)O)cc1)C1OCC2(OO1)C1CC3CC(C1)CC2C3 (centres unmarked) [97-78]
- conversion to 97-63 in plasma [2]: rapidly converted
- effect of LUME co-administration on PK parameters of 97-78 other than Tmax ([3]; 97-78 70 mg/kg with LUME 10 mg/kg oral, rats): no significant effect
- conversion into active metabolite 97-63 in vivo [4]: rapidly and completely converted

Compound: CCCCN(CCCC)CC(O)c1cc(Cl)cc2c1-c1ccc(Cl)cc1C2=Cc1ccc(Cl)cc1 (centres unmarked) [LUME, 2-dibutylamino-1-[2,7-dichloro-9-(4-chlorobenzylidene)-9H-fluoren-4-yl]-ethanol]
- RB% (relative bioavailability = AUC coadmin/AUC control × 100) ([3]; rats): 64.41^* %
- RB% (relative bioavailability = AUC coadmin/AUC control × 100) ([3]; rats, listed as lumefantrine): 64.41%
- decrease of AUC0-∞ of orally administered LUME in presence of 97-78 ([3]; LUME 10 mg/kg with 97-78 70 mg/kg oral vs LUME alone, rats, p <0.05): 63.26%
- effect of 97-78 co-administration on Cmax of LUME [3, 11]: not significantly altered
- effect of 97-78 co-administration on Tmax of LUME [3, 11]: not significantly altered
- AUC(0-inf) [3, 12]: 11000 ± 660 ng·h/mL
- AUC(0-t) [3, 12]: 10600 ± 710 ng·h/mL
- CL/F [3, 12]: 15.2 mL/min/kg
- Cmax [3, 12]: 1920 ± 620 ng/mL
- Tmax [3, 12]: 4 ± 2.45 h
- Vd/F [3, 12]: 62.7 ± 8.4 L/kg
- half-life [3, 12]: 47.8 ± 6.48 h
- AUC(0-inf) [3, 13]: 17400 ± 3290 ng·h/mL
- AUC(0-t) [3, 13]: 16500 ± 2960 ng·h/mL
- CL/F [3, 13]: 9.83 mL/min/kg
- Cmax [3, 13]: 1810 ± 750 ng/mL
- Tmax [3, 13]: 3.75 ± 1.5 h
- Vd/F [3, 13]: 39.5 ± 6.26 L/kg
- half-life [3, 13]: 46.9 ± 6.52 h
- Stability in rat plasma: Accuracy (%) [1, 5]: 101.73%
- Stability in rat plasma: Accuracy (%) [1, 6]: 103.72%
- Stability in rat plasma: Accuracy (%) ([1]; 10 ng/mL, 15 days at −70°C): 105.73%
- Stability in rat plasma: Accuracy (%) [1, 7]: 99.48%
- Stability in rat plasma: Accuracy (%) [1, 8]: 101.03%
- Stability in rat plasma: Accuracy (%) [1, 9]: 101.51%
- Stability in rat plasma: Accuracy (%) ([1]; 400 ng/mL, 15 days at −70°C): 102.54%
- Stability in rat plasma: Accuracy (%) [1, 10]: 106.78%

— paper PMC4429480, “Simultaneous quantification of proposed anti-malarial combination comprising of lumefantrine and CDRI 97–78 in rat plasma using the HPLC–ESI-MS/MS method: application to drug interaction study” (Malaria Journal, 2015)
